Like-named read-outs stand apart in the source and are kept apart here.
How the values were obtained:
[1] = system: spontaneously beating right atrium preparations; assay: chronotropic effect on spontaneously beating right atria from reserpinized guinea-pigs; design: species or system guinea-pig
Description: Experiments were carried out on spontaneously beating right atrium preparations taken from the hearts of guinea-pigs of both sexes, weighing 300 to 400 g.
Twenty hrs before sacrifice the animals were injected intramuscularly with reserpine dissolved in 20% ascorbic acid in 2 doses of 2 mg/kg each at 24 hrs distance. An equal number of animals received the reserpine solvent only and were kept as controls.
The preparations were suspended in 10 ml vessels containing Krebs-Henseleitsolution aerated with […] and maintained at a temperature of 35° C.
The right atria were fixed to the vessel base by one end and connected to a transducer of a semiisometric microdynanometer (Basile) by the other end.
Heart rate was recorded directly from the tracing.
All the preparations were subjected to a reset traction of 0.6-0.8 g and allowed to stabilize for 1 hr before starting experiments.
The substances were placed in the vessel in cumulative concentrations. Each concentration was increased by three times as compared with the previous one and a 10 min. interspace was left between concentrations.
The control preparations were made by replacing in the vessel the only solvent (H2 O) in the same volumes as for the drug solutions. The effect excerted by the drug and the solvent on atrial rate was evaluated as per-cent variation as compared with baseline values. The significance of the differences between treated and control animals was assessed by Dunnett's test.
***In order to be able to compare the effect of combined doses of the
enantiomers with those of equal doses of the single enantiomers racemic
moprolol was used in concentration double with respect to the single

[2] = system: adrenergic beta-receptors; assay: Median effective Dose (ED50) in the dog; type: in vivo
From the text: The data given in Table I evidence similar toxicity of the three different compounds.
In this regard the following Table II gives the respective data for the three compounds (±); (-); (+).

[3] = Lethal Dose50 (LD50) in the mouse; type: in vivo; conditions: mouse, in vivo, in the mouse
From the text: (§1) In this regard the following Table I reports the LD50 of the single isomers and of the racemic product.

[4] = system: adrenergic beta-receptors; assay: inhibition of hemodynamic effects of isoproterenol (beta-receptor stimulation) in anesthetized dogs; type: in vivo, dog; conditions: isoproterenol 0.25 μg/Kg/minute i.v.; for beta-blocking activity (in words): anesthetized dogs, duodenal administration
From the text: In order better to clarify the advantages connected with the use of pharmaceutical compositions according to the present invention, the attached drawings include three diagrams relating to certain experiments conducted in anesthetized dogs. These diagrams concern the inhibition by recemic moprolol, it laevorotatory optical isomer and its dextro-rotatory optical isomer, of certain homodynamic effects due to stimulation of the adrenergic beta-receptors following on intravenous infusion of isoproterenol at a dose of 0.25 μg/Kg/minute.
The curves therein reported refer to the means of the results of three tests for each substance.

[5] = system: mouse; assay: Lethal Dose50 (LD50) in the mouse; type: in vivo
From the text: as §1

[6] = reserpinized guinea-pig right atrium
[7] = listed as laevorotatory moprolol
[8] = Cavia porcellus, read-out: Chronotropic effect (% variation)

COc1ccccc1OCC(O)CNC(C)C (racemic) [Moprolol (±), 1-(o-methoxy-phenoxy)-3-isopropyl-amino-propane-2-ol]
cardiac action (in words) [1]: cardiac depressant action
activation at 0.01 µM ([1]; Cavia porcellus, column 1 × 10^-8, racemate used in double concentration vs single enantiomers, read-out: Chronotropic effect (% variation)): 0%
Median effective Dose (ED50) [2]: 0.150 mg/kg weight animal
LD50 [3]: 712 mg/kg

CC(C)NCC(O)COc1cccc2ccccc12 (single isomer, unassigned) [Moprolol 1-propanolol]
atr. block (preparations blocked / total) ([1]; 1 × 10^-4 M): 4/4
Chronotropic effect (% variation) ([1]; 1 × 10^-4 M, vs baseline, mean ± S.E.): atr. block
activation at 10 µM ([1]; Cavia porcellus, 1 × 10^-5 M, vs baseline, mean ± S.E., read-out: Chronotropic effect (% variation)): -21.5%
activation at 1 µM ([1]; Cavia porcellus, 1 × 10^-6 M, vs baseline, mean ± S.E., read-out: Chronotropic effect (% variation)): -5.7%
activation at 0.1 µM ([1]; Cavia porcellus, 1 × 10^-7 M, vs baseline, mean ± S.E., read-out: Chronotropic effect (% variation)): -2%
activation at 0.01 µM ([1]; Cavia porcellus, 1 × 10^-8 M, vs baseline, mean ± S.E., read-out: Chronotropic effect (% variation)): -0.5%
activation at 30 µM ([1]; Cavia porcellus, 3 × 10^-5 M, vs baseline, mean ± S.E., read-out: Chronotropic effect (% variation)): -37%
activation at 3 µM ([1]; Cavia porcellus, 3 × 10^-6 M, vs baseline, mean ± S.E., read-out: Chronotropic effect (% variation)): -11.2%
activation at 0.3 µM ([1]; Cavia porcellus, 3 × 10^-7 M, vs baseline, mean ± S.E., read-out: Chronotropic effect (% variation)): -3.5%
activation at 0.03 µM ([1]; Cavia porcellus, 3 × 10^-8 M, vs baseline, mean ± S.E., read-out: Chronotropic effect (% variation)): -0.75%
minimal effective concentration ([1]; Cavia porcellus, reserpinized guinea-pig right atrium, read-out: concentration from which depressant effect on atrial rate starts): ≥ 1 µM
effect on atrial rate (in words) ([1]; reserpinized guinea-pig right atrium, listed as Laevorotatory isomer of propanolol): no stimulant effect but a depressant effect
effect on atrial rate (in words) ([1]; reserpinized guinea-pig right atrium, listed as laevorotatory isomer of propanolol): more marked than that evoked by laevorotatory isomer, dextro-rotatory isomer and racemic moprolol

COc1ccccc1OCC(O)CNC(C)C (single isomer, unassigned) [Moprolol (+)]
Chronotropic effect (% variation) ([1]; 1 × 10^-4 M, vs baseline, mean ± S.E., listed as d-moprolol): -37.5%
Chronotropic effect (% variation) ([1]; 1 × 10^-5 M, vs baseline, mean ± S.E., listed as d-moprolol): -7.25%
Chronotropic effect (% variation) ([1]; 1 × 10^-6 M, vs baseline, mean ± S.E., listed as d-moprolol): -2%
Chronotropic effect (% variation) ([1]; 1 × 10^-7 M, vs baseline, mean ± S.E., listed as d-moprolol): -2.7%
Chronotropic effect (% variation) ([1]; 1 × 10^-8 M, vs baseline, mean ± S.E., listed as d-moprolol): -1.25%
Chronotropic effect (% variation) ([1]; 3 × 10^-5 M, vs baseline, mean ± S.E., listed as d-moprolol): -14.7%
Chronotropic effect (% variation) ([1]; 3 × 10^-6 M, vs baseline, mean ± S.E., listed as d-moprolol): -6%
Chronotropic effect (% variation) ([1]; 3 × 10^-7 M, vs baseline, mean ± S.E., listed as d-moprolol): -2.7%
Chronotropic effect (% variation) ([1]; 3 × 10^-8 M, vs baseline, mean ± S.E., listed as d-moprolol): -4%
effect on atrial rate (in words) ([1]; reserpinized guinea-pig right atrium, listed as Dextro-rotatory isomer of moprolol): no stimulant effect in a range of concentrations which have proved to be active for laevorotatory isomer of moprolol. On the contrary, they give rise to a depressant effect
beta-blocking activity (in words) ([4]; listed as dextro-rotatory isomer): practically nil
beta-blocking activity (in words) ([4]; listed as dextrorotatory optical isomer): almost complete lack of beta-blocking activity
Median effective Dose (ED50) [2]: nil
activity at effective dose (in words) [2]: without any activity whatsoever
toxicity (in words) ([5]; LD50, mouse): same toxicity as the laevorotatory isomer and the racemic form
Lethal Dose50 (LD50) ([5]; in the mouse): 720 mg/kg weight animal

COc1ccccc1OCC(O)CNC(C)C (single isomer, unassigned) [Moprolol (-)]
cardiac action (in words) [1]: cardiac stimulant action
Chronotropic effect (% variation) ([1]; 1 × 10^-4 M, vs baseline, mean ± S.E., listed as 1-moprolol): -10.8%
Chronotropic effect (% variation) ([1]; 1 × 10^-5 M, vs baseline, mean ± S.E., listed as 1-moprolol): +4%
Chronotropic effect (% variation) ([1]; 1 × 10^-6 M, vs baseline, mean ± S.E., listed as 1-moprolol): +8.8%
Chronotropic effect (% variation) ([1]; 1 × 10^-7 M, vs baseline, mean ± S.E., listed as 1-moprolol): +10.4%
Chronotropic effect (% variation) ([1]; 1 × 10^-8 M, vs baseline, mean ± S.E., listed as 1-moprolol): +8.2%
Chronotropic effect (% variation) ([1]; 3 × 10^-5 M, vs baseline, mean ± S.E., listed as 1-moprolol): +0.2%
Chronotropic effect (% variation) ([1]; 3 × 10^-6 M, vs baseline, mean ± S.E., listed as 1-moprolol): +7.8%
Chronotropic effect (% variation) ([1]; 3 × 10^-7 M, vs baseline, mean ± S.E., listed as 1-moprolol): +10.4%
Chronotropic effect (% variation) ([1]; 3 × 10^-8 M, vs baseline, mean ± S.E., listed as 1-moprolol): +11.4%
concentration range of stimulant effect on atrial rate [1, 6]: 10 to 1000 nM
effect on atrial rate (in words) ([1]; reserpinized guinea-pig right atrium, listed as Laevorotatory isomer of moprolol): causes a stimulant effect on atrial rate
significance (P) of correlation coefficient of dose-dependent inhibition ([4]; 0.25, 0.0625 and 0.125 mg/kg): < 0.01
beta-blocking activity (in words) ([4]; listed as laevoratatory isomer of moprolol): exactly double that of racemic moprolol
beta-blocking activity (in words) [4, 7]: particularly evident for the laevorotatory form in a dose-dependent manner
Median effective Dose (ED50) [2]: 0.0781 mg/kg weight animal
activity relative to the racemic form (times more active) ([2]; effective dose): 2 times
Median effective Dose (ED50) [2, 7]: 0.0781 mg/kg weight animal
LD50 [3]: 605 mg/kg

Cl.NCCc1ccc(O)cc1 [Tyramine HCl]
activation at 0.1 µM [1, 8]: 0%
activation at 0.3 µM [1, 8]: 0%
activation at 1 µM [1, 8]: 0%
activation at 3 µM [1, 8]: 0%
activation at 10 µM [1, 8]: -1 ± 1%
activation at 30 µM [1, 8]: -3%
activation at 100 µM [1, 8]: -3%
effect on atrial rate (in words) [1, 6]: devoid of positive chronotropic effect

Reference: patent US4683245A, “Laevorotatory antipode of moprolol as an antihypertensive” (SIMES S.p.A. Societa Italiana Medicinali e Sintetici, priority 1979, dated 1987)
